Data as given in patent publication US4820821A, “Novel pyridazinone-imines and their physiologically tolerated addition salts with acids, their preparation and therapeutic agents containing these compounds” (BASF Aktiengesellschaft, priority 1981, dated 1989).
Counter-ions that a name gives are not always drawn. Like-named read-outs stand apart in the source and are kept apart here.

Experiments:
[1] = tested on: reserpine-induced hypothermia; test: Antidepressive action: reserpine antagonism, inhibition of reserpine-induced hypothermia of the mouse; assay type: in vivo, male Swiss mice; settings: for ED50: Mus musculus, dose based on the base, read-out: ED 50% (dose which inhibits the reserpine-induced hypothermia of the mouse by 50%); for R.A. (relative activity), reserpine antagonism: amezinium = 1.00, oral
Description: Antidepressants effect dose-dependent inhibition of this hypotherma. The test substances are administered orally 60 minutes before the administration of reserpine.
The dose which effects 50% inhibition of the reserpine-induced hypothermia is determined, as the ED 50%, from the linear regression between log dose (mg/kg) and relative reduction in hypothermia (Δ%).

[2] = tested on: blood pressure; test: Effect on the blood pressure: hypertensive action, pithed rat; assay type: in vivo, male Sprague-Dawley rats; settings: for ED20: Rattus norvegicus, dose based on the base, read-out: ED 20% hypertensive action (dose which increases the blood pressure of the pithed rat by 20%); for R.A. (relative activity), hypertensive action: amezinium = 1.00
Description: The measurement of the blood pressure in the carotid artery was carried out by means of Statham transducers. The substance was administered in the jugular vein (as an aqueous solution, 1 ml/kg) or intraperitoneally (as a tragacanth suspension, 2 ml/kg). The ED 20% is determined as the dose which increases the blood pressure by 20%.

[3] = tested on: reserpine-induced hypothermia / blood pressure; test: Quotient ED 50% antidepressive action / ED 20% hypertensive action; assay type: in vivo, mouse / rat; settings: for Q Increase: Table 2, route of hypertensive test not given;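 as to Q Increase: larger quotient means more selective hypertensive action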
Text: This is evident from the fact that the quotient defined above differs wtih respect to the comparative compounds. […] This arises, inter alia, from the fact that the hypertensive ED 20 constitutes the denominator of the quotient. It is possible that the unforeseeable selective direction of action is attributable to the special substitution,in accordance with the invention, at the 4-imino group.

[4] = Table 1, oral administration 60 min before reserpine
[5] = ip, Table 1, i.p. administration
[6] = iv, Table 1, i.v. administration

Compound | ED50 [1, 4] [mg/kg] | R.A. (relative activity), reserpine antagonism ([1]; Table 1) | ED20 [2, 5] [mg/kg] | R.A. (relative activity), hypertensive action ([2]; Table 1, i.p. administration) | Q (quotient ED 50% antidepressive action/ED 20% hypertensive action) ([3]; hypertensive test i.p.) | ED50 ([1]; Table 2, oral administration) [mg/kg] | R.A. (relative activity), reserpine antagonism ([1]; Table 2) | ED20 ([2]; Table 2, route not given) [mg/kg] | R.A. (relative activity), hypertensive action ([2]; Table 2) | Q Increase [3] | ED20 [2, 6] [mg/kg] | R.A. (relative activity), hypertensive action ([2]; Table 1, i.v. administration) | factor by which the quotient of antidepressive action and hypertensive action is smaller than in the case of amezinium ([3]; compounds of Table 1) | Q (quotient ED 50% antidepressive action/ED 20% hypertensive action) ([3]; hypertensive test i.v.)
CCCC(=O)N=c1cnn(-c2ccccc2)c(OC)c1 [Example 52] | 1.4 | 0.52 | 3.16 | 0.12 | 0.44 | – | – | – | – | – | – | – | – | –
COc1cc(=NC(=O)c2ccc(Cl)cc2Cl)cnn1-c1ccccc1 [Example 68] | 0.95 | 0.77 | > 21.5 | < 0.02 | < 0.04 | – | – | – | – | – | – | – | – | –
COc1cc(=NC(=O)c2ccc(Cl)c(Cl)c2)cnn1-c1ccccc1 [Example 80] | 1.5 | 0.49 | > 10 | < 0.04 | < 0.15 | – | – | – | – | – | – | – | – | –
O=C(N=c1ccn(-c2ccccc2)nc1)C1CCC1 [Example 11, 4-(cyclobutylcarbonyl)-imino-1,4-dihydro-1-phenylpyridazine hydrochloride] | – | – | – | – | – | 6.09 | 0.12 | 0.077 | 0.65 | 79.09 | – | – | – | –
CCCNC(=O)N=c1ccn(-c2ccccc2)nc1 [Example 85, 1,4-dihydro-1-phenyl-4-[(propylcarbamyl)-imino]-pyridazine] | 0.28 | 2.62 | – | – | – | – | – | – | – | – | 1 | 0.05 | 52 | 0.28
CCNC(=S)N=c1ccn(-c2ccccc2)nc1 [Example 87, 1,4-dihydro-4-(ethylthiocarbamyl)-imino-1-phenylpyridazine] | 2.91 | 0.25 | – | – | – | – | – | – | – | – | > 1 | < 0.05 | – | < 2.91
CC1(C(=O)N=c2ccn(-c3ccccc3)nc2)CCCCC1 [Example 28] | 0.58 | 1.26 | – | – | – | – | – | – | – | – | 0.1 | 0.50 | – | 5.80
C=C(C)C(=O)N=c1ccn(-c2ccccc2)nc1 [Example 12, 1,4-dihydro-4-methacryloylimino-1-phenylpyridazine] | – | – | – | – | – | 0.75 | 0.98 | 0.022 | 2.27 | 34.09 | – | – | – | –
C=CCOC(=O)N=c1cnn(-c2ccccc2)c(OC)c1 [Example 72] | 1.47 | 0.50 | – | – | – | – | – | – | – | – | 0.464 | 0.11 | – | 3.17
COc1cc(=NC(=O)c2ccc(Cl)cc2)cnn1-c1ccccc1 [Example 66] | 1.8 | 0.41 | > 10 | < 0.04 | < 0.18 | – | – | – | – | – | – | – | – | –
CCCCOC(=O)N=c1cnn(-c2ccccc2)c(OC)c1 [Example 71] | 0.76 | 0.96 | – | – | – | – | – | – | – | – | 0.464 | 0.11 | – | 1.64
CCOc1cc(=NC(=O)c2ccccc2Cl)cnn1-c1ccccc1 [Example 65] | – | – | – | – | – | > 31.6 | < 0.02 | 0.53 | 0.09 | > 59.62 | – | – | – | –
